Laboratory results: patent US12162867B2, “Inhibitors of RNA helicase DHX9 and uses thereof” (ACCENT THERAPEUTICS, INC., priority 2022, dated 2024)

What follows are molecules tested on circBRIP1 in HCT116 cells (assay: DHX9 circBRIP1 cellular target engagement SYBR Green assay (qPCR)). Conditions: Homo sapiens, HCT-116, circBRIP1, HCT116 cells; SyBr assay (marked ^+); read-out: DHX9 Cellular Target Engagement EC50.
Assay type: cell-based

| EC50 [nM] | Structure (SMILES) |
| --- | --- |
| > 10000 | CS(=O)(=O)Nc1cc(Cl)cc(NC(=O)c2cnn([C@H]3CC[C@H](O)CC3)c2)c1 (single isomer, unassigned) [Example 154] |
| 7800 | CS(=O)(=O)Nc1cc(Cl)cc(NC(=O)c2cc3cnccc3s2)c1 [Example 288] |
| > 10000 | Cc1cncc2cc(C(=O)Nc3cc(Cl)cc(NS(C)(=O)=O)c3)sc12 [Example 290] |
| 2300 | CS(=O)(=O)Nc1cc(Cl)cc(NC(=O)c2cc3cccnn3c2)c1 [Example 292] |
| > 10000 | CS(=O)(=O)Nc1cc(Cl)cc(NC(=O)c2cnn(-c3ccccc3Oc3ncccn3)c2)c1 [Example 263] |
| 1880 | Cc1cc(C(=O)Nc2cc(Cl)cc(NS(C)(=O)=O)c2)cn1C1CCCC1 [Example 282] |
| 6730 | CS(=O)(=O)Nc1cc(Cl)cc(NC(=O)c2cnn(-c3ncccc3C(F)(F)F)c2)c1 [Example 47] |
| 734 | CS(=O)(=O)Nc1cc(Cl)cc(NC(=O)c2cc(-c3cccnc3)cs2)c1 [Example 116, N-(3-chloro-5-(methylsulfonamido)phenyl)-4-(pyridin-3-yl)thiophene-2-carboxamide] |
| 4950 | Cc1ccc(C#N)cc1-n1cc(C(=O)Nc2cc(Br)cc(NS(C)(=O)=O)c2)cn1 [Example 53] |
| 97.9 | CCn1cc(C(=O)Nc2cc(Cl)cc(NS(C)(=O)=O)c2)cc1-c1ccc(N2CCOCC2)cn1 [Example 274] |
| 241 | COc1cccc2sc(C(=O)Nc3cc(Cl)cc(NS(C)(=O)=O)c3)cc12 [Example 321] |
| 11200 | CS(=O)(=O)Nc1cc(F)cc(NC(=O)c2cc(-c3ccccc3)cs2)c1 [Example 73] |
| > 10000 | CN1CCN(c2cnc(-n3cc(C(=O)Nc4cc(Cl)cc(NS(C)(=O)=O)c4)cn3)c(OCc3cccnc3)c2)CC1=O [Example 193] |
| 278 | CS(=O)(=O)Nc1cc(Cl)cc(NC(=O)c2cnn(-c3ncccc3OCc3ccccc3)c2)c1 [Example 68] |
| 303 | CS(=O)(=O)Nc1cc(Cl)cc(NC(=O)c2cc(-c3ncccc3NC(=O)C3CC3)cs2)c1 [Example 220] |
| 138 | CS(=O)(=O)Nc1cc(Br)cc(NC(=O)c2cnn(-c3ncccc3N)c2)c1 [Example 162, 1-(3-aminopyridin-2-yl)-N-(3-bromo-5-(methylsulfonamido)phenyl)-1H-pyrazole-4-carboxamide] |
| > 10000 | CS(=O)(=O)Nc1cc(Cl)cc(NC(=O)c2cnn(CCO)c2)c1 [Example 127] |

| EC50 [nM] | Structure (SMILES) |
| --- | --- |
| 4650 | CS(=O)(=O)Nc1cc(Cl)cc(NC(=O)c2cnn(-c3ccccc3Oc3cccc(F)c3)c2)c1 [Example 265] |
| 1640 | CS(=O)(=O)Nc1cc(Cl)cc(NC(=O)c2cc(-c3ccccc3)cs2)c1 [Example 75] |
| > 10000 | CC(=O)N1CC2(CC(n3cc(C(=O)Nc4cc(Cl)cc(NS(C)(=O)=O)c4)cn3)C2)C1 [Example 313] |
| 503 | Cc1cc(C(=O)Nc2cc(Cl)cc(NS(C)(=O)=O)c2)cn1-c1ccc(N2CCS(=O)(=O)CC2)cn1 [Example 285] |
| > 10000 | CS(=O)(=O)Nc1cc(Cl)cc(NC(=O)c2cc3ccc(Cl)cc3s2)c1 [Example 293] |
| 6650 | CS(=O)(=O)Nc1cc(Cl)cc(NC(=O)c2cc(-c3cccc(F)c3)cs2)c1 [Example 108] |
| 953 | Cc1cccnc1-n1cc(C(=O)Nc2cc(Cl)cc(NS(C)(=O)=O)c2)cn1 [Example 54] |
| 291 | CS(=O)(=O)Nc1cc(Cl)cc(NC(=O)c2cnn(-c3ncc(N4CC5(COC5)C4)cc3OCc3cc(F)cc(F)c3)c2)c1 [Example 258] |
| 7440 | CCS(=O)(=O)Nc1cc(F)cc(NC(=O)c2cc(-c3ccccn3)cs2)c1 [Example 113] |
| 101 | Cc1cc(C(=O)Nc2cc(Cl)cc(NS(C)(=O)=O)c2)cn1-c1ccc(N2CCCC2)cn1 [Example 270] |
| 6090 | CS(=O)(=O)Nc1cc(Cl)cc(NC(=O)c2cc3c(F)ccc(F)c3s2)c1 [Example 325] |
| 251 | Cc1cccnc1-c1csc(C(=O)Nc2cc(F)cc(NS(C)(=O)=O)c2)c1 [Example 334] |
| 2370 | COc1ccc(-n2cc(C(=O)Nc3cc(Cl)cc(NS(C)(=O)=O)c3)cn2)nc1 [Example 197] |
| 348 | CS(=O)(=O)Nc1cc(Cl)cc(NC(=O)c2cc(-c3ncccc3Oc3cccnc3)cs2)c1 [Example 239] |
| 834 | CS(=O)(=O)Nc1cc(Cl)cc(NC(=O)c2cnn(-c3cc(N4CCNCC4)ccn3)c2)c1 [Example 147] |
| 3940 | Cc1ccc2cc(C(=O)Nc3cc(Cl)cc(NS(C)(=O)=O)c3)cn2c1 [Example 300] |

Further lines, the molecule ahead of its results:

| Structure (SMILES) | EC50 [nM] |
| --- | --- |
| CS(=O)(=O)Nc1cc(Cl)cc(NC(=O)c2cnn(-c3ncccc3OCc3ccncc3)c2)c1 [Example 64] | 5640 |
| Cn1nc(-c2ccccn2)cc1C(=O)Nc1cc(Cl)cc(NS(C)(=O)=O)c1 [Example 141] | > 10000 |
| CN(C)C(=O)Cc1cccnc1-c1csc(C(=O)Nc2cc(Cl)cc(NS(C)(=O)=O)c2)c1 [Example 221] | 121 |
| CS(=O)(=O)Nc1cc(Cl)cc(NC(=O)c2cnn(-c3ncccc3COc3cncc(F)c3)c2)c1 [Example 262] | 439 |
| COCc1sc(C(=O)Nc2cc(Cl)cc(NS(C)(=O)=O)c2)cc1-c1ccccn1 [Example 234] | 1180 |
| COC(=O)[C@@H]1CCCN1c1csc(C(=O)Nc2cc(Cl)cc(NS(C)(=O)=O)c2)c1 [Example 242] | 5020 |
| CCS(=O)(=O)Nc1cc(Cl)cc(NC(=O)c2cc(-c3cccnc3)cs2)c1 [Example 110] | 2710 |
| CS(=O)(=O)Nc1cc(Cl)cc(NC(=O)c2cc(C(=O)Nc3ccccc3)cs2)c1 [Example 166, N2-(3-chloro-5-(methylsulfonamido)phenyl)-N4-phenylthiophene-2,4-dicarboxamide] | 2390 |
| CS(=O)(=O)Nc1cc(Cl)cc(NC(=O)c2cc3c(C(F)(F)F)cccn3c2)c1 [Example 302] | 1930 |
| CS(=O)(=O)Nc1cc(Cl)cc(NC(=O)c2cnn([C@H]3CC[C@H]3O)c2)c1 (single isomer, unassigned) [Example 306b] | > 10000 |
| CC(Oc1cccnc1-n1cc(C(=O)Nc2cc(Cl)cc(NS(C)(=O)=O)c2)cn1)c1ccccc1 (stereo not drawn) [Example 62] | 6800 |
| CS(=O)(=O)Nc1cc(Cl)cc(NC(=O)c2cnn(-c3ncccc3OCc3ccn[nH]3)c2)c1 [Example 253] | 9230 |
| CS(=O)(=O)Nc1cc(Cl)cc(NC(=O)c2cnn(C3CCOC3)c2)c1 (stereo not drawn) [Example 182] | > 10000 |
| CS(=O)(=O)Nc1cc(Cl)cc(NC(=O)c2cnn(-c3ncccc3Oc3ncccn3)c2)c1 [Example 196] | 6730 |
| CCS(=O)(=O)Nc1cc(Cl)cc(NC(=O)c2cc(-c3ncc(F)cn3)c(C)s2)c1 [Example 344] | 153 |
| CS(=O)(=O)Nc1cc(Cl)cc(NC(=O)c2cnn(-c3cnc(N4CCOCC4)cn3)c2)c1 [Example 388] | 6530 |
| Cn1cc(C(=O)Nc2cc(Cl)cc(NS(C)(=O)=O)c2)cc1-c1ccc(N2CCOCC2)cn1 [Example 273] | 37.5 |
| CS(=O)(=O)Nc1cc(Cl)cc(NC(=O)c2cnn(-c3ccc(N4CCCC4=O)cn3)c2)c1 [Example 90] | 1060 |
| Cn1cc(C(=O)Nc2cc(Cl)cc(NS(C)(=O)=O)c2)cc1-c1ccccc1 [Example 109] | 437 |
| Cc1cc(C(=O)Nc2cc(Cl)cc(NS(C)(=O)=O)c2)cn1-c1ncc(N2CCOCC2)cc1F [Example 320] | 96.1 |
| CS(=O)(=O)Nc1cc(F)cc(NC(=O)c2cc(-c3cccnc3)cs2)c1 [Example 105, N-(3-fluoro-5-(methylsulfonamido)phenyl)-4-(pyridin-3-yl)thiophene-2-carboxamide] | 8330 |
| CS(=O)(=O)Nc1cc(Cl)cc(NC(=O)c2c[nH]c(-c3ccccc3)n2)c1 [Example 6] | 9340 |
| Cc1cccn2cc(C(=O)Nc3cc(Cl)cc(NS(C)(=O)=O)c3)cc12 [Example 329] | 4980 |

Same assay, conditions: Homo sapiens, HCT-116, circBRIP1, HCT116 cells; ^+ SyBr assay was used; read-out: DHX9 Cellular Target Engagement EC50

| EC50 [nM] | Structure (SMILES) |
| --- | --- |
| 858 | CCOc1cnc(-n2cc(C(=O)Nc3cc(Cl)cc(NS(C)(=O)=O)c3)cc2C(F)(F)F)nc1 [Example 693] |
| 126 | Cc1sc(C(=O)Nc2cc(Cl)cc(NS(C)(=O)=O)c2)cc1-c1ncc(F)cc1-c1cncc(F)c1 [Example 607] |
| 133 | COc1cc(F)cnc1-n1cc(C(=O)Nc2cc(Cl)cc(NS(C)(=O)=O)c2)cc1C [Example 393] |
| 239 | Cc1cc(C(=O)Nc2cc(Cl)cc(NS(C)(=O)=O)c2)cn1-c1ncc(S(C)(=O)=O)cn1 [Example 656] |
| 305 | CS(=O)(=O)Nc1cc(Cl)cc(NC(=O)c2cnn(-c3ncccc3Oc3cccc(F)c3)c2)c1 [Example 427] |
| 340 | CS(=O)(=O)Nc1cc(Cl)cc(NC(=O)c2cc(-c3ccc(F)cn3)n(CCO)c2)c1 [Example 689] |
| 124 | Cc1cc(C(=O)Nc2cc(Cl)cc(NS(C)(=O)=O)c2)cn1-c1ncc(OC2COC2)cn1 [Example 669] |
| 1240 | CS(=O)(=O)Nc1cc(Cl)cc(NC(=O)c2cc(Cl)n(-c3ncc(F)cn3)c2)c1 [Example 709] |
| 146 | Cn1cc(C(=O)Nc2cc(Cl)cc(NS(C)(=O)=O)c2)cc1-c1ccc(C(F)(F)F)cn1 [Example 569] |

More lines, now with the values behind:

| Structure (SMILES) | EC50 [nM] |
| --- | --- |
| CC(C)(C)OC(=O)N1CC(n2cc(C(=O)Nc3cc(Cl)cc(NS(C)(=O)=O)c3)cc2-c2ncc(F)cn2)C1 [Example 645] | 1260 |
| Cn1cc(C(=O)Nc2cc(Cl)cc(NS(C)(=O)=O)c2)cc1-c1ncc(Cl)cn1 [Example 577] | 153 |
| Cc1sc(C(=O)Nc2cc(Cl)cc(NS(C)(=O)=O)c2)cc1-n1cc(F)cn1 [Example 439] | 199 |
| CS(=O)(=O)Nc1cc(Cl)cc(NC(=O)c2cc(-c3ncc(F)cn3)c(C3CC3)s2)c1 [Example 448] | 2730 |
| CS(=O)(=O)Nc1cc(Cl)cc(NC(=O)c2cnn(-c3ncccc3Oc3cccnc3)c2)c1 [Example 676] | 806 |
| Cc1sc(C(=O)Nc2cc(Cl)cc(NS(C)(=O)=O)c2)cc1N1C(=O)N(c2ccccn2)C(C)(C)C1=O [Example 685] | 769 |

Same assay, conditions: Homo sapiens, HCT-116, read-out: DHX9 Cellular Target Engagement EC50

| Structure (SMILES) | EC50 [nM] |
| --- | --- |
| CS(=O)(=O)Nc1cc(F)cc(NC(=O)c2cc(Br)cs2)c1 [Example 71, 4-bromo-N-(3-fluoro-5-(methylsulfonamido)phenyl)thiophene-2-carboxamide] | 26300 |
